The text below walks through data of ChEMBL document CHEMBL3600306, “Sulfonamide bearing pyrazolylpyrazolines as potent inhibitors of carbonic anhydrase isoforms I, II, IX and XII” (Bioorg Med Chem Lett, 2015).

The target of this assay is Carbonic anhydrase 9 (Homo sapiens, UniProt Q16790). Put plainly: Inhibition of human carbonic anhydrase-9 incubated for 10 mins prior to testing by stopped-flow CO2 hydrase assay.
Usually Ki stands for a measure of affinity in units of concentration, obtained from inhibition or displacement. A low value points to higher affinity. In the case of `Cc1nn(-c2ccc(S(N)(=O)=O)cc2)c(Cl)c1C1CC(c2ccccc2)=NN1c1ccc(S(N)(=O)=O)cc1` (configuration not stated), the affinity, expressed as Ki, was 71.6 nM.
To `Cc1ccc(C2=NN(c3ccc(S(N)(=O)=O)cc3)C(c3c(C)nn(-c4ccc(S(N)(=O)=O)cc4)c3Cl)C2)cc1` (configuration not stated) belongs 70.7 nM.
`COc1ccc(C2=NN(c3ccc(S(N)(=O)=O)cc3)C(c3c(C)nn(-c4ccc(S(N)(=O)=O)cc4)c3Cl)C2)cc1` (configuration not stated) gave a Ki of 52.4 nM.
To `Cc1nn(-c2ccc(S(N)(=O)=O)cc2)c(Cl)c1C1CC(c2ccc(F)cc2)=NN1c1ccc(S(N)(=O)=O)cc1` (configuration not stated) belongs 44.7 nM; to `Cc1nn(-c2ccc(S(N)(=O)=O)cc2)c(Cl)c1C1CC(c2ccc(Cl)cc2)=NN1c1ccc(S(N)(=O)=O)cc1` (configuration not stated), 32.9 nM.
As for `Cc1nn(-c2ccc(S(N)(=O)=O)cc2)c(Cl)c1C1CC(c2ccc(Br)cc2)=NN1c1ccc(S(N)(=O)=O)cc1` (configuration not stated), the Ki was 44.4 nM.
To `CC(=O)N1N=C(c2ccccc2)CC1c1c(C)nn(-c2ccc(S(N)(=O)=O)cc2)c1Cl` (configuration not stated) belongs 63.1 nM; to `CC(=O)N1N=C(c2ccc(C)cc2)CC1c1c(C)nn(-c2ccc(S(N)(=O)=O)cc2)c1Cl` (configuration not stated), 67.1 nM.
The result for `COc1ccc(C2=NN(C(C)=O)C(c3c(C)nn(-c4ccc(S(N)(=O)=O)cc4)c3Cl)C2)cc1` (configuration not stated) reads 56.9 nM; that for `CC(=O)N1N=C(c2ccc(F)cc2)CC1c1c(C)nn(-c2ccc(S(N)(=O)=O)cc2)c1Cl` (configuration not stated), 6.9 nM; that for `CC(=O)N1N=C(c2ccc(Cl)cc2)CC1c1c(C)nn(-c2ccc(S(N)(=O)=O)cc2)c1Cl` (configuration not stated), 30.8 nM.
The result for `CC(=O)N1N=C(c2ccc(Br)cc2)CC1c1c(C)nn(-c2ccc(S(N)(=O)=O)cc2)c1Cl` (configuration not stated) reads 67.2 nM.
